Laboratory results reported in patent US12617777B2, “GPR84 antagonists and uses thereof” (Liminal BioSciences Limited, priority 2021, dated 2026).

What was measured:
neutrophils = experiment: Neutrophil migration assay (embelin as chemotactic agent, ATPlite readout); format: cell-based; settings: for IC50: Neutrophil, human neutrophils, embelin as chemotactic agent, read-out: Human Neutrophil migration inhibition IC50; for Human Neutrophil migration inhibition - fold potency to Control Compound: normalized to GPR84 antagonist Control Compound (average IC50 131 nM)
Procedure: Neutrophil migration assay. After isolation, neutrophils were resuspended in chemotaxis buffer (DMEM supplemented with 10 mM HEPES) at a concentration of 8.9×10^6 cells/ml. In a 96-well plate, 20 μl of compound solution in chemotaxis buffer is added to 180 μl of cell suspension. After incubation at 37° C. for 30 minutes, 75 μl of cell suspension is transferred in the upper chamber of a 5 μm pore size Corning HTS transwell. 235 μl of chemotaxis buffer containing the chemotactic agent (embelin) is added to the lower chamber of the transwell. After a 60-minute incubation time at 37° C. in 5%0 C02, the upper chamber of the transwell is removed and the plate is centrifuged at 1500 rpm for 6 minutes. Supermatant is removed and cells resuspended in 100 ul of PBS. ATP content was assessed using ATPlite Luminescence Assay System® according to manufacturer instructions (Perkin Elmer, Buckinghamshire, UK). Briefly, 50 μl of ATPlite buffer and 50 μl of lysis solution is added to the lower chamber of the Transwells. After incubation at room temperature, in the dark with constant agitation for 5 minutes, 150 μl of cell lysate is transferred in a 96 wells white plate and incubated for 10 minutes in the dark. Luminescence is read on a TECAN plate reader, Infinite M1000 (Tecan, Morrisville, NC).
The compound numbers correspond to the compound numbers in Table 1. […] Normalization of the results takes the donor's variation into account.

human GPR84 receptor = target: T1, human GPR84 receptor (Homo sapiens, UniProt Q9NQS5); experiment: Gαi biosensor BRET assay in HEK293 cells (antagonism of ZQ-16); format: cell-based; settings: for inhibition at 10 µM: HEK293, single concentration 10 μM (designated F); for IC50: HEK293 cells, antagonism of 200 nmol/L ZQ-16; for inhibition at 25 µM: HEK293, single concentration 25 μM (designated I); for inhibition at 2 µM: HEK293, single concentration 2 μM (designated A)
T1 construct: host or cells: HEK293, transient transfection
T1 sequence (Q9NQS5 whole entry): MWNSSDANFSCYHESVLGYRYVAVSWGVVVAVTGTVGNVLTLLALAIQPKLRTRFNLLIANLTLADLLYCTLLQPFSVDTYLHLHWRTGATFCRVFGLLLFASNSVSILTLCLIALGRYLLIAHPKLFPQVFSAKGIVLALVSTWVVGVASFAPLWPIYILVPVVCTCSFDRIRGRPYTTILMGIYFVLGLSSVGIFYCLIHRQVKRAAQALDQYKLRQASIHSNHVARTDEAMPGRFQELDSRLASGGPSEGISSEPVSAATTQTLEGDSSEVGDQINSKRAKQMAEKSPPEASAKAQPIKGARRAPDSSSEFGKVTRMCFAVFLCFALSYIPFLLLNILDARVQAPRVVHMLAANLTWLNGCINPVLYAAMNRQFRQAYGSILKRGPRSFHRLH
Procedure, shortened: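 HEK293 cells transiently expressing human GPR84, Gαi2-Rluc8, GFP10-Gγ2 and Gβ1, in Tyrode's buffer pH 7.5. Compounds preincubated 5 min at 37° C, then 200 nmol/L ZQ-16 for 5 min at room temperature; coelenterazine 400A 5 μmol/L. BRET2 acceptor/donor ratio, background- and vehicle-corrected net BRET.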

Cc1cc(N2CCN(Cc3ccccn3)CC2)ccc1-c1cn(CC2OCC(C)(C)CO2)nn1 [Compound I-531]
IC50 (neutrophils): ≤ 0.3 µM | Human Neutrophil migration inhibition - fold potency to Control Compound (neutrophils): A (IC50 of >1.0-fold relative to Control Compound) | inhibition at 10 µM (human GPR84 receptor): > 75% | IC50 (human GPR84 receptor): ≤ 0.3 µM

Clc1cc(C#CC2CC2)ccc1-c1cn(CC2CCCCO2)nn1 (stereo not drawn) [Compound I-315]
IC50 (neutrophils): 0.3 to 1 µM | Human Neutrophil migration inhibition - fold potency to Control Compound (neutrophils): C (IC50≤0.5-fold relative to Control Compound) | inhibition at 25 µM (human GPR84 receptor): > 75% | IC50 (human GPR84 receptor): > 3 µM

Cc1cc(C#CC2CC2)cnc1-c1cn(CC2CCCCO2)nn1 (stereo not drawn) [Compound I-107]
IC50 (neutrophils): ≤ 0.3 µM | Human Neutrophil migration inhibition - fold potency to Control Compound (neutrophils): A (IC50 of >1.0-fold relative to Control Compound) | inhibition at 10 µM (human GPR84 receptor): > 75% | IC50 (human GPR84 receptor): 1 to 3 µM

CCc1cc(C#CCN2CC(C)(C)C2)cnc1-c1cn(C[C@H]2CCCCO2)nn1 [Compound I-277]
inhibition at 10 µM (human GPR84 receptor): > 75%

CCc1cc(C#CC2CC2)ccc1-c1cn(CC2CCCCO2)nn1 (stereo not drawn) [Compound I-865]
inhibition at 10 µM (human GPR84 receptor): ≤ 25% | IC50 (human GPR84 receptor): 0.3 to 1 µM

CC(=O)NC(C)(C)COc1ccc(-c2cn(CC3CCCCO3)nn2)c(C)c1 (stereo not drawn) [Compound I-265]
inhibition at 10 µM (human GPR84 receptor): 25 to 50%

Cc1cc(N2CC(C)(C)C2)c(Cl)cc1-c1cn(C[C@H]2CCCCO2)nn1 [Compound I-421]
inhibition at 10 µM (human GPR84 receptor): > 75%

Cc1cc(N2CCCC(CO)C2)ccc1-c1cn(CC2CCCCO2)nn1 (stereo not drawn) [Compound I-446]
inhibition at 10 µM (human GPR84 receptor): 25 to 50%

Cc1cc(N2CCN(Cc3cccnc3)CC2)ccc1-c1cn(CC2CCCCO2)nn1 (stereo not drawn) [Compound I-578]
inhibition at 10 µM (human GPR84 receptor): 50 to 75% | IC50 (human GPR84 receptor): > 3 µM

CC1(C)COC(Cn2cncc2-c2ncc(C#CC3CC3)cc2OC2CC2)OC1 [Compound I-832]
inhibition at 10 µM (human GPR84 receptor): ≤ 25%

C(#CC1CC1)c1ccc(Cc2cn(CC3CCCCO3)nn2)cc1 (stereo not drawn) [Compound I-298]
inhibition at 10 µM (human GPR84 receptor): 25 to 50%

Cc1cc(NS(C)(=O)=O)ccc1-c1cn(CC2CCCCO2)nn1 (stereo not drawn) [Compound I-130]
inhibition at 10 µM (human GPR84 receptor): ≤ 25%

CC1(C)COC(Cn2cc(-c3ncc(C#CCOC4CC4)cc3OC3CC3)nn2)OC1 [Compound I-758]
inhibition at 2 µM (human GPR84 receptor): > 75% | IC50 (human GPR84 receptor): ≤ 0.3 µM

Cc1cc(OC2CN(Cc3ccccn3)C2)ccc1-c1cn(CC2CCCCO2)nn1 (stereo not drawn) [Compound I-514]
inhibition at 2 µM (human GPR84 receptor): ≤ 25%

C[C@@H]1Cc2oc(C(=O)NC[C@@H]3COCCO3)c(C(F)(F)F)c2-c2nn(CC3CCN(C(=O)C4CC4)CC3)cc21 [Compound I-787]
inhibition at 10 µM (human GPR84 receptor): ≤ 25% | IC50 (human GPR84 receptor): 0.3 to 1 µM

Cc1cc(C#CC2CC2)ccc1-c1cn(CC2CCCCN2)nn1 (stereo not drawn) [Compound I-126]
inhibition at 10 µM (human GPR84 receptor): ≤ 25%

Cc1cc(C#CC2CC2)ccc1-c1cn(CC2CC(C)(C)O2)nn1 (stereo not drawn) [Compound I-197]
inhibition at 10 µM (human GPR84 receptor): 50 to 75%

Cc1ccc(C#CC2CC2)cc1C1(c2cn(CC3CCCCO3)nn2)OCCO1 (stereo not drawn) [Compound I-604]
inhibition at 10 µM (human GPR84 receptor): > 75% | IC50 (human GPR84 receptor): 1 to 3 µM

Cc1ccc(C#CCNCc2ccccc2)cc1-c1cn(CC2CCCCO2)nn1 (stereo not drawn) [Compound I-201]
inhibition at 10 µM (human GPR84 receptor): ≤ 25%

COC1CCN(c2ccc(-c3cn(CC4CCCCO4)nn3)c(C)c2)C1 (stereo not drawn) [Compound I-463]
inhibition at 2 µM (human GPR84 receptor): ≤ 25%

CC(=O)N1CCOCC1Cn1cc(-c2ccc(C#CC3CC3)cc2C)nn1 (stereo not drawn) [Compound I-99]
inhibition at 10 µM (human GPR84 receptor): ≤ 25%

FC1(F)CC(C#Cc2cnc(-c3cn(CC4OCC5(CC5)CO4)nn3)c(OC3CC3)c2)C1 (stereo not drawn) [Compound I-862]
inhibition at 10 µM (human GPR84 receptor): 50 to 75%

Cc1cc(C#CC2CC2)ccc1-c1cn(CC2CCC(=O)N2)nn1 (stereo not drawn) [Compound I-542]
inhibition at 2 µM (human GPR84 receptor): ≤ 25%

COc1ccc(-c2cn(CC3CCCCO3)nn2)c(C)c1 (stereo not drawn) [Compound I-412]
inhibition at 10 µM (human GPR84 receptor): ≤ 25%

Cc1cc(C#CC2CC2)ccc1-c1cn(CC2Cc3ccccc3O2)nn1 (stereo not drawn) [Compound I-363]
inhibition at 3 µM (human GPR84 receptor; HEK293, single concentration 3 μM (designated B)): 25 to 50%

OCC#Cc1cnc(-c2cn(CC3OCC4(CC4)CO3)nn2)c(OC2CC2)c1 [Compound I-839]
inhibition at 10 µM (human GPR84 receptor): > 75%

Cc1ccc(C#CC2CC2)cc1Cc1cn(CC2COc3ncccc3O2)nn1 (stereo not drawn) [Compound I-552]
inhibition at 2 µM (human GPR84 receptor): 25 to 50%

CCc1cc(N2CC(C)(C)C2)cnc1-c1cn(CC2CCCCO2)nn1 (stereo not drawn) [Compound I-260]
inhibition at 10 µM (human GPR84 receptor): 50 to 75%

Cc1cc(C2CCN(Cc3ccccn3)CC2)cnc1-c1cn(CC2CCCCO2)nn1 (stereo not drawn) [Compound I-482]
inhibition at 10 µM (human GPR84 receptor): ≤ 25%

C(#CC1CC1)c1cccc(-c2nnn(CC3CCCCO3)n2)c1 (stereo not drawn) [Compound I-4]
inhibition at 25 µM (human GPR84 receptor): 25 to 50% | IC50 (human GPR84 receptor): ≤ 0.3 µM
